Molecules are shown by their SMILES. Bridge positions count the residues as written; N and C are the ends. Square brackets hold non-standard residues; d marks the D form. Peptide text beside a SMILES is read from it. Sar = CNCC(=O)O

Holding throughout (type): functional
The subject of experiment [1] is Oryctolagus cuniculus. Kind of experiment: Compound was tested for dose-dependent hypertensive response in infused anesthetized rabbits at 10 ug/min.
For experiment [2], the system named is Oryctolagus cuniculus. Kind of experiment: Compound was tested for dose-dependent hypertensive response in infused anesthetized rabbits at 20 ug/min.
Experiment [3] deals with Oryctolagus cuniculus. Kind of experiment: Compound was tested for dose-dependent hypertensive response in infused anesthetized rabbits at 30 ug/min.
Experiment [4] has as its system Oryctolagus cuniculus. Kind of experiment: Compound was tested for dose-dependent hypertensive response in infused anesthetized rabbits at 1 ug/min.
For experiment [5], the system named is Oryctolagus cuniculus. Kind of experiment: Compound was tested for dose-dependent hypertensive response in infused anesthetized rabbits at 2 ug/min.
The subject of experiment [6] is Oryctolagus cuniculus. Kind of experiment: Compound was tested for dose-dependent hypertensive response in infused anesthetized rabbits at 3 ug/min.
The species named for experiment [7] is Oryctolagus cuniculus. As to the kind of experiment: Compound was tested for dose-related reduction of the mean blood pressure on boluses of different dose of 0.05 mg via ear vein; value ranges from -20 to -40.
The species entered for experiment [8] is Oryctolagus cuniculus. Kind of experiment: Compound was tested for dose-related reduction of the mean blood pressure on boluses of different dose of 0.1 mg via ear vein.
The species named for experiment [9] is Oryctolagus cuniculus. Kind of experiment: Compound was tested for dose-related reduction of the mean blood pressure on boluses of different dose of 0.2 mg via ear vein; value ranges from -40 to -60.
Experiment [10] is filed under the species Oryctolagus cuniculus. As to the kind of experiment: Compound was tested for dose-related reduction of the mean blood pressure on boluses of different dose of 150 mg via ear vein.
The species entered for experiment [11] is Oryctolagus cuniculus. As to the kind of experiment: Compound was tested for dose-related reduction of the mean blood pressure on boluses of different dose of 300 mg via ear vein.
The species named for experiment [12] is Oryctolagus cuniculus. As to the kind of experiment: Compound was tested for dose-related reduction of the mean blood pressure on boluses of different dose of 75 mg via ear vein.
Experiment [13] is filed under the species Oryctolagus cuniculus. Kind of experiment: Compound was tested for dose-related reduction of the mean blood pressure on boluses of different dose of 1 mg via ear vein; value ranges from 0 to -20.
The species entered for experiment [14] is Oryctolagus cuniculus. As to the kind of experiment: Compound was tested for dose-related reduction of the mean blood pressure on boluses of different dose of 2 mg via ear vein; value ranges from 0 to -20.

For the compound `CNCC(=O)N[C@@H](CCCN=C(N)N)C(=O)N[C@H]1CCC(=O)NCCCC[C@@H](C(=O)N[C@@H](Cc2c[nH]cn2)C(=O)N2CCC[C@H]2C(=O)N[C@@H](Cc2ccccc2)C(=O)O)NC(=O)[C@H](Cc2ccc(O)cc2)NC1=O` (H-[Sar]REYKHPF-OH; lactam 3-5), the Response with Oryctolagus cuniculus [1] is on record as 0%; in the experiment on Oryctolagus cuniculus [2] it was 40%; with Oryctolagus cuniculus [3], 60%.

Regarding `CC[C@H](C)[C@H](NC(=O)[C@H](Cc1ccc(O)cc1)NC(=O)[C@@H](NC(=O)[C@H](CCCNC(=N)N)NC(=O)[C@@H](N)CC(=O)O)C(C)C)C(=O)N[C@@H](Cc1cnc[nH]1)C(=O)N1CCC[C@H]1C(=O)N[C@@H](Cc1ccccc1)C(=O)O` [ANGIOTENSIN II], the Response in the experiment with Oryctolagus cuniculus [4] was 20%; in the experiment on Oryctolagus cuniculus [5], 20%; in the experiment with Oryctolagus cuniculus [6] it was 40%.

Regarding `CCCCc1nc(Cl)c(CO)n1Cc1ccc(-c2ccccc2-c2nnn[nH]2)cc1` [LOSARTAN], the “Delta mean blood pressure” value was -20 in the experiment listed under Oryctolagus cuniculus [7], -40 in the experiment listed under Oryctolagus cuniculus [8] and -40 in the experiment filed under Oryctolagus cuniculus [9].

Turning to `CC[C@H](C)[C@H](NC(=O)[C@@H]1CCCN1C(=O)[C@H](Cc1c[nH]cn1)NC(=O)[C@@H]1CCCCNC(=O)CC[C@H](NC(=O)[C@H](CCCN=C(N)N)NC(=O)CNC)C(=O)N[C@@H](Cc2ccc(O)cc2)C(=O)N1)C(=O)O` (H-[Sar]REYKHPI-OH; lactam 3-5), the “Delta mean blood pressure” value in the experiment filed under Oryctolagus cuniculus [10] is 0; in the experiment listed under Oryctolagus cuniculus [11], -20; in the experiment filed under Oryctolagus cuniculus [12] it was 0.

As to `OCc1nc2ccccc2n1Cc1ccc(-c2ccccc2C2=NC(Cc3ccccc3)N=N2)cc1` (centres undefined), the “Delta mean blood pressure” value in the experiment listed under Oryctolagus cuniculus [13] and in the experiment listed under Oryctolagus cuniculus [14] was 0 each time.

These data come from ChEMBL document CHEMBL1135334, “Design, synthesis and biological evaluation of cyclic angiotensin II analogues with 3,5 side-chain bridges. Role of C-terminal aromatic residue and ring cluster for activity and implications in the drug design of AT1 non-peptide antagonists” (2002).
